# Measured values taken from US20200155526A1, “TARGETING LYSINE DEMETHYLASES (KDMS) AS A THERAPEUTIC STRATEGY FOR DIFFUSE LARGE B-CELL LYMPHOMA” (THE CHILDREN'S MEDICAL CENTER CORPORATION, priority 2017, published 2020).
# Assays:
# OCI-Ly1 = OCI-Ly1 sensitivity assay (CTG viability); format: cell-based, human; conditions: for OCI-Ly1 cell viability, Jumonji-inhibitors: OCI-Ly1, range tested, FIG. 5
# Procedure: (§1) For the Cell Titer Glo assays (CTG), between 3000-10,000 cells were plated in a 96 well plate (in triplicates). The cells were allowed to settle for 24 hours before either small molecule(s) or DMSO was added at indicated concentrations. The treatment was performed for indicated days (preferably 2 days for a “snap-shot” experiments). CTG signal was used to assess viability after 2 days according to manufacturer's protocol (Promega Corporation; Madison, Wis.).
# When performing the comparative test of GSK126 and JIB04, daily readings were taken using the manufacturer's protocol for CTG signal after day 2 (for JIB04), and after day 5 (for GSK126).
# For OCI-Ly1 sensitivity assay, OCI-Ly1 cells were grown at a density of 1-3×10^6 cells/mL and 3000-10,000 cells were plated in a 96-well plate (in triplicates). The cells were allowed to settle for 24 hours before either the indicated small molecule(s) or DMSO was added at indicated concentrations. CTG signal was used to assess viability after 2 days according to manufacturer's protocol (Promega Corporation; Madison, Wis.). Small molecules used in each experiment are stated in the respective figures along with their concentrations. Results are shown in FIGS. 10, 11, 13, 14, 15, 16 and 22.
# PARP = experiment: Production of cleaved PARP; format: cell-based; conditions: FIG. 4B
# [1] = test system: Ikaros family members (IKZF1, IKZF3); experiment: Immunoblotting of Ikaros family members and BCR signaling components; format: cell-based; conditions: JIB04 100 nM or 500 nM, FIG. 20
# Procedure: Effect of JIB-04 on Ikaros family members and proximal components of BCR signaling pathway was assayed as follows: One million cells growing under indicated conditions (DMSO or JIB04 treatment; 100 nM or 500 nM) were pelleted by centrifugation at 1000 rpm for 5 min, and then resuspended in RIPA buffer with protease and phosphatase inhibitors. The cell suspension was left on ice for 20 min, and then sonicated using Diagenode water-bath sonicator (15 s. on; 30 s. off, for 15 cycles at max power). After sonication, cell extract was spun at 12000 rpm for 20 min, and the supernatant was collected for immunoblotting. Immunoblotting was performed using standard methods, and the blots were probed using antibodies recognizing indicated proteins.
# Ly1 cells [2] = experiment: In vivo Ly1 luciferase model, bioluminescence imaging; conditions: NSG mice, 30 mg/kg, 3 times weekly, intra-peritoneal, 2 weeks post treatment, FIGS. 18A-18B
# Procedure: For in vivo studies, Ly1 cells, with a luciferase reporter or […], were administered to Nod/SCID− mice (NSG) (6-8 weeks) were used for tail vein injection. Mice administered the Ly1 cells comprising the luciferase reporter were imaged every week after injection using the IVIS Spectrum In Vivo Imaging System (Perkin Elmer). […] JIB04 was administered three times a week, for two weeks, via intra-peritoneal injection in a mix of 90% sesame oil and 10% DMSO mix (vehicle). Mice were imaged each week and images from pre-treatment and 2-weeks after start of treatment with 30 mg/kg (3× a week) JIB04 are shown in FIG. 18A (pre-treatment) and FIG. 18B (post-treatment).
# lymphoma cell lines = experiment: Annexin V staining apoptosis assay; format: cell-based; conditions: FIG. 4A
# Procedure: APC-Annexin V was obtained from BD Pharmingen (Franklin Lakes, N.J.), and Annexin V staining was performed as described by the manufacturer.
# DLBCL cell lines = experiment: Sensitivity of DLBCL cell lines (CTG viability); format: cell-based
# Procedure: For the Cell Titer Glo assays (CTG), between 3000-10,000 cells were plated in a 96 well plate (in triplicates). The cells were allowed to settle for 24 hours before either small molecule(s) or DMSO was added at indicated concentrations. The treatment was performed for indicated days (preferably 2 days for a “snap-shot” experiments). CTG signal was used to assess viability after 2 days according to manufacturer's protocol (Promega Corporation; Madison, Wis.). For OCI-Ly1 sensitivity assay, OCI-Ly1 cells were grown at a density of 1-3×10^6 cells/mL and 3000-10,000 cells were plated in a 96-well plate (in triplicates). The cells were allowed to settle for 24 hours before either the indicated small molecule(s) or DMSO was added at indicated concentrations. CTG signal was used to assess viability after 2 days according to manufacturer's protocol (Promega Corporation; Madison, Wis.). Small molecules used in each experiment are stated in the respective figures along with their concentrations. Results are shown in FIGS. 10, 11, 13, 14, 15, 16 and 22.
# [3] = Cell cycle analysis by propidium iodide staining; format: cell-based, human; conditions: different dosage and times, FIG. 7C
# Excerpt: Propidium Iodide Flow Cytometry Kit from Abcam was used to perform cell cycle analysis using propidium iodide staining according to manufacturer's protocol.
# canonical Wnt signaling = experiment: Transcriptomics / ChIP-seq GSEA of Wnt signaling; format: cell-based; conditions: FIGS. 21A-21C
# Procedure: (§2) Three independent cultures of OCI-Ly1 cell lines were grown till the cultures achieved the cell numbers of approximately 1-1.5*10^6 cells/ml, and then cells were treated with either DMSO or two different JIB04 concentrations (150 nM and 500 nM). RNA was isolated using Trizol method, followed by library preparation using NEBUltraII kit (New England Biolabs; Ipswich, Mass.). After high throughput sequencing of the libraries, FastQc was used for filtering and quality control of the reads followed by read alignment to hg19 assembly of the human genome. Reads were counted by TopHat, differential gene expression analysis was performed in Rstudio. GSEA was performed using the desktop client from the Broad Institute, and the GSEA output was visualized using Rstudio.
# Cells were fixed with 1% formaldehyde for 10 minutes at room temperature before termination with 0.125 M glycine. Cells were then lysed in ChIP buffer (0.6% SDS, 10 mM EDTA, and 50 mM Tris-HCl, pH 8.1) and cross-linked chromatin was sonicated to obtain DNA fragments of 300-800 bp. […] Libraries were quantified by Qubit (Invitrogen), and sequenced using a HiSeq 2000 (Illumina) to generate 50 bp single end reads.
# Ly1 cells [4] = experiment: In vivo Ly1 model, Kaplan Meier survival; conditions: mice, compared to vehicle treated mice, FIG. 19
# Excerpt: Mice administered Ly1 cells without the luciferase reporter were monitored post administration, and fraction surviving was plotted (FIG. 19) using the Kaplan Meier Survival Analysis of Graphpad Prism.
# Jurkat = experiment: Cell Titer Glo (CTG) viability, JIB04 dose response; format: cell-based; conditions: Homo sapiens, 48 h; Jurkat (leukemia), 2 days treatment, FIG. 2; read-out: effective EC50
# Procedure: as §1
# DB = experiment: as above; format: cell-based; conditions: Homo sapiens, 48 h; DB (DLBCL), 2 days treatment, FIG. 2
# Procedure: as §1
# MV4-11 = experiment: as above; format: cell-based; conditions: Homo sapiens, 48 h; MV4-11 (leukemia), 2 days treatment, FIG. 2; read-out: effective EC50
# Procedure: as §1
# THP-1 = experiment: as above; format: cell-based; conditions: Homo sapiens, 48 h; THP-1 (leukemia), 2 days treatment, FIG. 2; read-out: effective EC50
# Procedure: as §1
# Toledo = experiment: as above; format: cell-based; conditions: Homo sapiens, 48 h; Toledo (DLBCL), 2 days treatment, FIG. 2
# Procedure: as §1
# Farage = experiment: as above; format: cell-based; conditions: 48 h; Farage (DLBCL), 2 days treatment, FIG. 2
# Procedure: as §1
# SUDHL5 = experiment: as above; format: cell-based; conditions: Homo sapiens, SU-DHL-5, 48 h; SUDHL5 (DLBCL), 2 days treatment, FIG. 2
# Procedure: as §1
# HL-60 = experiment: as above; format: cell-based; conditions: Homo sapiens, 48 h; HL-60 (leukemia), 2 days treatment, FIG. 2; read-out: effective EC50
# Procedure: as §1
# OCI-Ly1 cell lines = experiment: Transcriptomics (RNA-seq, GSEA) of JIB04-treated cells; format: cell-based, human
# Procedure: as §2
# [5] = JIB04 150 nM and 500 nM, FIG. 7A
smiles,measurement,setting,value
CC(C)c1c(-c2ccccc2)[nH]c2c(C#N)cnn2c1=O [CPI-455],"OCI-Ly1 cell viability, Jumonji-inhibitors",OCI-Ly1,only JIB04 decreased OCI-Ly1 cell viability significantly
CCOC(=O)CCNc1cc(N2CCc3ccccc3CC2)nc(-c2ccccn2)n1 [GSK-J4],"OCI-Ly1 cell viability, Jumonji-inhibitors",OCI-Ly1,only JIB04 decreased OCI-Ly1 cell viability significantly
"Clc1ccc(N/N=C(\c2ccccc2)c2ccccn2)nc1 [JIB04, 5-Chloro-2-[(E)-2-[phenyl(pyridin-2-yl)methylidene]hydrazin-1-yl]pyridine]",production of cleaved PARP,PARP,increased production of cleaved PARP
same,levels of Ikaros family members,[1],"downregulates levels of members of Ikaros family, such as IKZF1 and IKZF3"
same,tumor burden,Ly1 cells [2],reduction in tumor burden within a short window of treatment
same,EC50,"OCI-Ly1; Homo sapiens, 48 h, OCI-Ly1 (DLBCL), 2 days treatment, FIG. 2",< 0.25 µM
same,"OCI-Ly1 cell viability, Jumonji-inhibitors",OCI-Ly1,decreased OCI-Ly1 cell viability significantly
same,JIB04 potency (CTG signal relative to DMSO) when combined with Ibrutinib,"OCI-Ly1; combined with Ibrutinib, compared to JIB04 alone, FIG. 16",increased
same,"reduction of CTG signal, E isomer versus Z isomer","OCI-Ly1; trans configuration (E isomer) relative to cis configuration (Z isomer), FIG. 13",more is effective at reducing CTG signal relative to the cis configuration (Z isomer)
same,annexin-V positive cells,lymphoma cell lines,increase in annexin-V positive cells in a dose-dependent manner
same,sensitivity of GCB and ABC type DLBCL lines,DLBCL cell lines; GCB and ABC type DLBCL,both of those lines are sensitive to JIB04
same,cell cycle,[3],cell cycle arrest
same,canonical Wnt signaling,canonical Wnt signaling,inhibits canonical Wnt signaling
same,survival,Ly1 cells [4],increased survival as compared to vehicle treated mice
same,EC50,Jurkat,~1 µM
same,EC50,DB,< 0.25 µM
same,EC50,MV4-11,~1 µM
same,EC50,THP-1,~1 µM
same,EC50,Toledo,< 0.25 µM
same,EC50,Farage,< 0.25 µM
same,EC50,SUDHL5,< 0.25 µM
same,EC50,HL-60,~1 µM
same,CDKN1A expression,OCI-Ly1 cell lines; FIGS. 7B and 7C,significantly upregulated
same,downregulated pathways (GSEA),OCI-Ly1 cell lines; [5],downregulation of “E2F targets” and “Myc-targets”
same,upregulated pathways (GSEA),OCI-Ly1 cell lines; [5],upregulation of “apoptosis” and “p53”-pathways
CCOC(=O)c1ccnc(CNCC(=O)N(CC)CCN(C)C)c1 [KDM5-C70],"OCI-Ly1 cell viability, Jumonji-inhibitors",OCI-Ly1,only JIB04 decreased OCI-Ly1 cell viability significantly
CN(C)CCCNC(=O)c1ccc(-c2cc(O)c3ncccc3c2)cc1 [ML324],"OCI-Ly1 cell viability, Jumonji-inhibitors",OCI-Ly1,only JIB04 decreased OCI-Ly1 cell viability significantly
O=[N+]([O-])c1cc([N+](=O)[O-])c(/C=C/c2ccc(Cl)c(Cl)c2)cc1/C=C/c1ccc(Cl)c(Cl)c1 [NSC636819],"OCI-Ly1 cell viability, Jumonji-inhibitors",OCI-Ly1,only JIB04 decreased OCI-Ly1 cell viability significantly
Cc1cc(/C=C/c2ccc3cc(N(C)C)ccc3[n+]2C)c(C)n1-c1ccccc1 [Pyrvinium],sensitivity of DLBCL cell lines,DLBCL cell lines; FIG. 22,sensitive to Pyrvinium
